Experimental data reported in the supplement of paper PMC10307832.

Key:
Assay in all cases: relative viability (nuclei count vs DMSO), 5 days (fraction); higher = more cells survive
[1] = compound: CCN1CCC(CC1)N2C=C(N=N2)CNC3=CC4=C(C(=CN=C4C(=C3)Cl)C#N)NC5=CC(=C(C=C5)F)Cl [KIN001-266] + Cc1nc(Nc2ncc(C(=O)Nc3c(C)cccc3Cl)s2)cc(N2CCN(CCO)CC2)n1 [Dasatinib] (partner 0.075 µM)
Outline: (§1)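 Each reported value is a median over duplicate plates. It expresses relative viability: treated-well nuclei count divided by vehicle-well nuclei count. Lung cancer cell lines in 1536-well plates were dosed by pin tool a day after seeding, alone with one drug or with a fixed anchor-drug dose plus five library-drug doses (not always all listed) in √10 steps, and nuclei were counted after 5 days.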

[2] = compound: CCN1CCC(CC1)N2C=C(N=N2)CNC3=CC4=C(C(=CN=C4C(=C3)Cl)C#N)NC5=CC(=C(C=C5)F)Cl [KIN001-266] + CC(=O)c1c(C)c2cnc(Nc3ccc(N4CCNCC4)cn3)nc2n(C2CCCC2)c1=O [Palbociclib] (partner 0.5 µM)
Outline: as §1

[3] = compound: CCN1CCC(CC1)N2C=C(N=N2)CNC3=CC4=C(C(=CN=C4C(=C3)Cl)C#N)NC5=CC(=C(C=C5)F)Cl [KIN001-266] + CC(C)C[C@H](NC(=O)[C@H](Cc1ccccc1)NC(=O)c1cnccn1)B(O)O [Bortezomib] (partner 0.002 µM)
Outline: as §1

[4] = compound: CCN1CCC(CC1)N2C=C(N=N2)CNC3=CC4=C(C(=CN=C4C(=C3)Cl)C#N)NC5=CC(=C(C=C5)F)Cl [KIN001-266] + CCNC(=O)c1noc(-c2cc(C(C)C)c(O)cc2O)c1-c1ccc(CN2CCOCC2)cc1 [Luminespib] (partner 0.01 µM)
Outline: as §1

| Cell Line | relative viability ([1]; first compound 0.08 µM) | relative viability ([1]; first compound 0.253 µM) | relative viability ([1]; first compound 0.8 µM) | relative viability ([1]; first compound 2.53 µM) | relative viability ([1]; first compound 8 µM) | relative viability ([2]; first compound 0.08 µM) | relative viability ([2]; first compound 0.253 µM) | relative viability ([2]; first compound 0.8 µM) | relative viability ([2]; first compound 2.53 µM) | relative viability ([2]; first compound 8 µM) | relative viability ([3]; first compound 0.08 µM) | relative viability ([3]; first compound 0.253 µM) | relative viability ([3]; first compound 0.8 µM) | relative viability ([3]; first compound 2.53 µM) | relative viability ([3]; first compound 8 µM) | relative viability ([4]; first compound 0.08 µM) | relative viability ([4]; first compound 0.253 µM) | relative viability ([4]; first compound 0.8 µM) | relative viability ([4]; first compound 2.53 µM) | relative viability ([4]; first compound 8 µM) |
| --- | --- | --- | --- | --- | --- | --- | --- | --- | --- | --- | --- | --- | --- | --- | --- | --- | --- | --- | --- | --- |
| NCI-H520 | 0.209 | 0.208 | 0.187 | 0.168 | 0.194 | 0.23 | 0.236 | 0.243 | 0.165 | 0.237 | 0.633 | 0.677 | 0.535 | 0.544 | 0.675 | 0.246 | 0.289 | 0.228 | 0.192 | 0.22 |
| CAL-12T | 0.444 | 0.49 | 0.345 | 0.52 | 0.278 | 0.44 | 0.492 | 0.438 | 0.359 | 0.419 | 1.04 | 0.976 |  | 1.12 | 0.97 | 0.363 | 0.322 | 0.499 | 0.475 | 0.2 |
| EPLC-272H | 0.467 | 0.324 | 0.333 | 0.421 | 0.234 | 0.348 | 0.354 | 0.275 | 0.307 | 0.312 | 1.19 | 0.949 | 0.751 | 0.839 | 0.605 | 0.253 | 0.268 | 0.323 | 0.181 | 0.176 |
| LCLC-103H | 0.538 | 0.494 | 0.436 | 0.519 | 0.452 | 0.453 | 0.492 | 0.466 | 0.456 | 0.433 | 1.18 | 1.15 | 1.08 | 1.08 | 0.986 | 0.96 | 1.01 | 0.95 | 0.923 | 0.695 |
| NCI-H2405 | 0.207 | 0.241 | 0.233 | 0.223 | 0.202 | 0.525 | 0.567 | 0.551 | 0.467 | 0.441 | 0.99 | 1 | 0.984 | 0.925 | 0.809 | 0.743 | 0.712 | 0.628 | 0.701 | 0.516 |
| HCC-15 | 0.683 | 0.592 | 0.566 | 0.596 | 0.448 | 0.707 | 0.806 | 0.593 | 0.608 | 0.509 | 1.01 | 1.04 | 0.868 | 0.864 | 0.662 | 0.232 | 0.475 | 0.241 | 0.248 | 0.136 |
| PC-3 [JPC-3] | 0.982 | 1.01 | 0.912 | 1.01 | 0.847 | 0.539 | 0.544 | 0.542 | 0.537 | 0.549 | 0.786 | 0.846 | 0.813 | 0.736 | 0.764 | 0.719 | 0.673 | 0.613 | 0.744 | 0.669 |
| HARA | 0.26 | 0.256 | 0.231 | 0.264 | 0.281 | 0.237 | 0.27 | 0.261 | 0.237 | 0.18 | 1.07 | 1.09 | 1.16 | 1.07 | 1.04 | 0.704 | 0.718 | 0.395 | 0.878 | 0.307 |
| NCI-H2126 | 0.656 | 0.631 | 0.599 | 0.624 | 0.589 | 0.324 | 0.366 | 0.387 | 0.358 | 0.365 | 1.16 | 1.12 | 1.15 | 1.13 | 1.14 | 0.868 | 0.871 | 0.906 | 0.865 | 0.978 |
| LXF-289 | 0.24 | 0.193 | 0.232 | 0.261 | 0.203 | 0.589 | 0.618 | 0.596 | 0.606 | 0.629 | 0.954 | 0.987 | 0.95 | 0.972 | 1.03 | 0.633 | 0.72 | 0.72 | 0.705 | 0.794 |
| NCI-H460 | 0.659 | 0.513 | 0.531 | 0.45 | 0.496 | 0.175 | 0.161 | 0.263 | 0.176 | 0.153 | 1.01 | 1.18 | 1.16 | 0.988 | 1.06 | 0.0348 | 0.0385 | 0.0335 | 0.0269 | 0.0404 |
| NCI-H2009 | 0.382 | 0.313 | 0.302 | 0.274 | 0.201 | 0.203 | 0.257 | 0.253 | 0.208 | 0.203 | 1.02 | 1.06 | 1.09 | 0.95 | 0.658 | 1.04 | 0.969 | 1.05 | 0.983 | 0.881 |
